Assay results reported in patent US9035044B2, “L-proline and citric acid co-crystals of (2S, 3R, 4R, 5S,6R)-2-(3-((5-(4-fluorophenyl)thiopen-2-yl)methyl)4-methylphenyl)-6-(hydroxymethyl)tetrahydro-2H-pyran-3,4,5-triol” (Janssen Pharmaceutica NV, priority 2011, dated 2015).

How the values were obtained:
Type in all cases: physicochemical
[1] = Physical stability on storage in serum crimp vials; settings: up to 4 weeks; for physical stability: 5° C. sealed, 25° C./60% RH open, 40° C. sealed, 40° C./75% RH open, 60° C. sealed, 80° C. sealed
Description: (§1) The crystalline L-proline co-crystal of the compound of formula (I-X) was tested for physical stability by storing about 10 mg of the co-crystal in 10 mL serum crimp vials, under following conditions: (a) 5° C., sealed; (b) 25° C./60% RH, open; (c) 40° C., sealed; (d) 40° C./75% RH, open; (e) 60° C., sealed; and (f) 80° C., sealed; with stability data collected at 1 day, 1 week, 2 weeks and 4 weeks.
as §1, with “citric acid” for “L-proline”, “was similarly” for “was”, “in” for “in 10”

[2] = Chemical stability/degradation of stored samples by HPLC; settings: 1 week
Description: (§2) Samples of the crystalline L-proline co-crystal of the compound of formula (I-X) being tested for physical stability, sampled at 1 day, 1 week, 2 weeks and 4 weeks, were further tested for chemical stability/degradation. Crystalline L-proline co-crystal of the compound of formula (I-X) (˜10 mg) was diluted with a 50:50 water:acetonitrile solution (10 mL), and then further diluted 10 fold for HPLC measurements.
as §2, with “citric acid” for “L-proline”

[3] = Dynamic vapor sorption/desorption (DVS); settings: for hygroscopicity: 0% RH to 90% RH, 2 full cycles; for form conversion by pXRD after the DVS run: isolated at 0% RH
Description: DVS: Moisture sorption was characterized on a DVS-1 Instrument (Surface Measurement Systems, Allentown, Pa.). In each case, the sample was subject to a drying curve from ambient to 0% relative humidity (RH), followed by two cycles of sorption (from 0% RH to 90% RH) and desorption (from 90% RH to 0% RH) in 10% RH steps at 25° C. At each step the sample was allowed to equilibrate at a specific % RH and thus, stabilize in terms of weight gained or lost prior to the instrument moving to the next step within the method.
The crystalline L-proline co-crystal of the compound of formula (I-X) was further characterized using Dynamic Vapor Sorption (DVS), measuring from 0% RH to 90% RH (2 full cycles) at 25° C.
The crystalline citric acid co-crystal of the compound of formula (I-X) was further characterized using Dynamic Vapor Sorption (DVS), measuring from 0% RH to 90% RH (2 full cycles) at 25° C.

[4] = all six storage conditions, 1 day, 2 weeks and 4 weeks
[5] = 25° C./60% RH open and 60° C. sealed, 2 week and 4 week samples
[6] = 40° C./75% RH open and 80° C. sealed, 2 week and 4 week samples

SMILES | physical stability [1] | visible color changes ([1]; all six storage conditions) | chemical stability (HPLC) [2, 4] | degradation peaks (HPLC) [2, 4] | hygroscopicity ([3]; 25° C.) | mass gain ([3]; between 40% RH and 90% RH, 25° C., lost on desorption with some hysteresis) [%] | form conversion by pXRD after the DVS run [3] | weight gain ([3]; until % RH reached 40%, 25° C.) | degradation on a peak basis ([1]; stored at 25° C./60% RH, 40° C./75% RH, 60° C. or 80° C.) [%] | degradation peaks (HPLC) [2, 5] | peak purity (HPLC) [2, 5] [%] | degradation peaks (HPLC) [2, 6] | peak purity (HPLC) [2, 6] [%] | chemical stability (HPLC) ([2]; stored at 5° C. sealed and 40° C. sealed, 1 day, 2 weeks and 4 weeks) | increase in mass ([3]; 0%-80% RH, 25° C., lost again on desorption) [%]
Cc1ccc([C@@H]2O[C@H](CO)[C@@H](O)[C@H](O)[C@H]2O)cc1Cc1ccc(-c2ccc(F)cc2)s1 [crystalline L-proline co-crystal of the compound of formula ] [(2S,3R,4R,5S,6R)-2-(3-((5-(4-fluorophenyl)thiophen-2-yl)methyl)-4-methylphenyl)-6-(hydroxymethyl)tetrahydro-2H-pyran-3,4,5-triol] | physically stable | no visible color changes | chemically stable | No degradation peaks were observed | hygroscopic | 12 | no irreversible form conversion | no weight gain was observed |  |  |  |  |  |  | 
Cc1ccc([C@@H]2O[C@H](CO)[C@@H](O)[C@H](O)[C@H]2O)cc1Cc1ccc(-c2ccc(F)cc2)s1 [crystalline citric acid co-crystal of the compound of formul] [(2S,3R,4R,5S,6R)-2-(3-((5-(4-fluorophenyl)thiophen-2-yl)methyl)-4-methylphenyl)-6-(hydroxymethyl)tetrahydro-2H-pyran-3,4,5-triol] | physically stable |  |  |  | non-hygroscopic |  | no form conversion |  | < 0.3 | A small degradation peak was observed | > 99 | A few small degradation peaks were also observed | > 99 | chemically stable | 0.5
